Measured values taken from BigSolDB 2.1.

CC(C)(C)c1cc(O)c(C(C)(C)C)cc1O
Settings	solubility (mole fraction)
in acetone, 283.35 K	0.0332
in acetone, 285.65 K	0.0365
in acetone, 288.25 K	0.0413
in acetone, 290.55 K	0.0456
in acetone, 293.15 K	0.0519
in acetone, 295.35 K	0.057
in acetone, 298.05 K	0.0636
in acetone, 300.35 K	0.0691
in acetone, 303.15 K	0.0775
in acetone, 305.45 K	0.0836
in acetone, 308.05 K	0.0929
in acetone, 310.25 K	0.1
in acetone, 313.05 K	0.12
in acetone, 316.15 K	0.123
in acetone, 319.15 K	0.136
in acetone, 321.15 K	0.148
in acetone, 323.15 K	0.161
in ethyl acetate, 278.95 K	0.144
in ethyl acetate, 281.55 K	0.145
in ethyl acetate, 284.45 K	0.146
in ethyl acetate, 287.35 K	0.148
in ethyl acetate, 290.45 K	0.148
in ethyl acetate, 293.15 K	0.15
in ethyl acetate, 296.25 K	0.151
in ethyl acetate, 298.85 K	0.153
in ethyl acetate, 301.85 K	0.155
in ethyl acetate, 304.75 K	0.157
in ethyl acetate, 307.45 K	0.158
in ethyl acetate, 310.45 K	0.161
in ethyl acetate, 312.35 K	0.163
in ethyl acetate, 316.15 K	0.166
in ethyl acetate, 319.15 K	0.169
in ethyl acetate, 322.15 K	0.17
in ethyl acetate, 325.15 K	0.173
in ethyl acetate, 328.15 K	0.177
in ethyl acetate, 331.15 K	0.18
in ethyl acetate, 335.15 K	0.183
in ethyl acetate, 337.15 K	0.186
in ethyl acetate, 340.15 K	0.188
in ethyl acetate, 343.15 K	0.194
in ethyl acetate, 346.15 K	0.195
in methanol, 280.95 K	0.0647
in methanol, 283.55 K	0.065
in methanol, 285.95 K	0.0651
in methanol, 288.15 K	0.0653
in methanol, 290.65 K	0.0658
in methanol, 293.15 K	0.0667
in methanol, 295.55 K	0.0678
in methanol, 297.95 K	0.0688
in methanol, 300.65 K	0.0697
in methanol, 302.65 K	0.0707
in methanol, 305.15 K	0.0712
in methanol, 307.25 K	0.072
in methanol, 309.85 K	0.0727
in methanol, 312.05 K	0.0734
in methanol, 316.15 K	0.0766
in methanol, 319.15 K	0.078
in methanol, 322.15 K	0.08
in methanol, 325.15 K	0.0811
in methanol, 328.15 K	0.0833
in methanol, 331.15 K	0.0849
in methanol, 333.15 K	0.0863
